{"source": "ChEMBL document CHEMBL1201862", "about": "“PubChem BioAssay data set” (2004)", "key": {"[1]": {"target": "T1, Leucine aminopeptidase (Plasmodium falciparum 3D7, UniProt Q8IL11)", "T1 sequence (Q8IL11 whole entry)": "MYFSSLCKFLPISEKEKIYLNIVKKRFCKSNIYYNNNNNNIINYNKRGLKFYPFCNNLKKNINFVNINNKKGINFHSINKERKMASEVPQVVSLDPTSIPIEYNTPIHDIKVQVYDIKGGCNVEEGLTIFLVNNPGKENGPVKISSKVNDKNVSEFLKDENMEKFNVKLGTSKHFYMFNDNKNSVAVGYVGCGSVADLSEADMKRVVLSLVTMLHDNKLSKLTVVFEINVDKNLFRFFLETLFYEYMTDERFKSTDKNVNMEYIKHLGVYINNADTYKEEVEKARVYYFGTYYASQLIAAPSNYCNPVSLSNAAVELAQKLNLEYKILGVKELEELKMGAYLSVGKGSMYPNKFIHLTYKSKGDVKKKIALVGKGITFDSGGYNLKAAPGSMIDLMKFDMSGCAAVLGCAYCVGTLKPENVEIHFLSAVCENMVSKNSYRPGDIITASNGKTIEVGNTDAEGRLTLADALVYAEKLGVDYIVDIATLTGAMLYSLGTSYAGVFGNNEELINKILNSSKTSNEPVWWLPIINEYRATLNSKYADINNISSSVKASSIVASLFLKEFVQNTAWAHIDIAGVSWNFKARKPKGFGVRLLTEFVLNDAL", "experiment": "P. falciparum M17LAP inhibitors, primary screen, biochemical, fluorogenic H-Leu-NHMec substrate, 1536-well (AID 1619)", "format": "functional"}, "[2]": {"target": "T2, Aspartyl aminopeptidase (Plasmodium falciparum 3D7, UniProt Q8I2J3)", "T2 sequence (Q8I2J3 whole entry)": "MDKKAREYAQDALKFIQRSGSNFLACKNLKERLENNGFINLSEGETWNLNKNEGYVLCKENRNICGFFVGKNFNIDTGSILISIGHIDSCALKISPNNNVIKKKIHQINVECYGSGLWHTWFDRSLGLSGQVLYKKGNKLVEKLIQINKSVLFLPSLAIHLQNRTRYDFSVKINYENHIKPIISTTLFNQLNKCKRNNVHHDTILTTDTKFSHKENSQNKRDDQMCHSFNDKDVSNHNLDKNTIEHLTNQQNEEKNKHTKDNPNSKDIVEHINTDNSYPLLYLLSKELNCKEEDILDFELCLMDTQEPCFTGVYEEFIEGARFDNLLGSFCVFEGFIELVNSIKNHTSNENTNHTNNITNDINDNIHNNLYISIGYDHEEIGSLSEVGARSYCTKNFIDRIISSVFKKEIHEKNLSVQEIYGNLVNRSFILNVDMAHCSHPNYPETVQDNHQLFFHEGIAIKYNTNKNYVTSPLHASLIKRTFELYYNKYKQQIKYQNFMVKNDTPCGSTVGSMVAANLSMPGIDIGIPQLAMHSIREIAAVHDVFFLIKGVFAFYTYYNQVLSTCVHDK", "experiment": "Counterscreen for inhibitors of M1 and M17 aminopeptidases: QFRET-based biochemical high throughput dose response assay for inhibitors of the Plasmodium falciparum M18 Aspartyl Aminopeptidase (PFM18AAP). [Related PubChem assays: 1619 (Screening assay (M17LAP inhibitors).), 1445 (Screening assay (M1AAP inhibitors).)]"}, "[3]": {"target": "Procathepsin L (Homo sapiens, UniProt P07711)", "sequence (P07711 whole entry)": "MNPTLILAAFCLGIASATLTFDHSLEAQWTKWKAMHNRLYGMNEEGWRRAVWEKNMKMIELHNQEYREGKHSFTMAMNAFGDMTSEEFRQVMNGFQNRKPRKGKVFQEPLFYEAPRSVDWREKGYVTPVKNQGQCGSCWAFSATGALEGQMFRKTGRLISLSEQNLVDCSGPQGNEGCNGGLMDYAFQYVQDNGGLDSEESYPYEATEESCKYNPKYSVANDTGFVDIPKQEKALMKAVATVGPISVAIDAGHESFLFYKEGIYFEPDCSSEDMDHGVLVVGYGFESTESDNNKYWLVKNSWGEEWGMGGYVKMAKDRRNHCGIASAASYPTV", "experiment": "CTSL1 protease inhibition – biochemical, QFRET, 1536-well, counter-screen for M1/M17 aminopeptidase inhibitor project, dose response (AID 2214)"}, "[4]": {"target": "Genome polyprotein (dengue virus type 2, UniProt P29990)", "sequence (P29990 2492-3391 limits assumed)": "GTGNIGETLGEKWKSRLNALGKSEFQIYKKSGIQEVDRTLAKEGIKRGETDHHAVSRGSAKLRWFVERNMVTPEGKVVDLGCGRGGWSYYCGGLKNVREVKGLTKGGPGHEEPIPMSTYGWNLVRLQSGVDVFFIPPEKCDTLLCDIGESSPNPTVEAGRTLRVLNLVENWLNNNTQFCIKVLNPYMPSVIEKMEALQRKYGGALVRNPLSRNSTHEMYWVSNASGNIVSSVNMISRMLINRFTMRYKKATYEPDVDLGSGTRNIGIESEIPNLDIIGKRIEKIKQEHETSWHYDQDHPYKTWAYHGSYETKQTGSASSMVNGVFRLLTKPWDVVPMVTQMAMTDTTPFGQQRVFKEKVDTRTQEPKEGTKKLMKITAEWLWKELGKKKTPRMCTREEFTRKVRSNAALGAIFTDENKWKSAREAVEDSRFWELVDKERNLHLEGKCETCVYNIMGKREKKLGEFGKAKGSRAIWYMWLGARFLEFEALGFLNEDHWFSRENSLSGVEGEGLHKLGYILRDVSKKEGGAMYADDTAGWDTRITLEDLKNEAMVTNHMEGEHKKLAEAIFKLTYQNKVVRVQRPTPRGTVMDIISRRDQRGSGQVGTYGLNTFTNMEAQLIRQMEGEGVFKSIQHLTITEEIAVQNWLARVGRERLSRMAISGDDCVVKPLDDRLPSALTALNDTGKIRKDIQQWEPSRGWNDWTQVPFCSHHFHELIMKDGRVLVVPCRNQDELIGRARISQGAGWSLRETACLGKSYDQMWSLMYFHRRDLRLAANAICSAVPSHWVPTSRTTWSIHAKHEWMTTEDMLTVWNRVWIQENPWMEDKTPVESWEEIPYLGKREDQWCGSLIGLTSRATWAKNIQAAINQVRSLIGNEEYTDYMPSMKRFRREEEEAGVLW", "experiment": "flavivirus cap methylation enzyme inhibition – biochemical, confirmation dose response, primary screen (AID 588689)", "format": "functional"}, "[5]": {"target": "T3, Probable nicotinate-nucleotide adenylyltransferase (Staphylococcus aureus (strain N315), UniProt P65502)", "T3 sequence (P65502 whole entry)": "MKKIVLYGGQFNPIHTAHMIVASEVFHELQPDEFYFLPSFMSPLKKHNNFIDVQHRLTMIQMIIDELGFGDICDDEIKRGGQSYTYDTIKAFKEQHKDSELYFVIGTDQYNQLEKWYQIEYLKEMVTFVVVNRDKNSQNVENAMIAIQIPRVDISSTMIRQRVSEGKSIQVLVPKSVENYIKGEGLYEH", "format": "functional, Staphylococcus aureus subsp. aureus N315"}, "[6]": {"target": "T3, Probable nicotinate-nucleotide adenylyltransferase", "format": "functional, Staphylococcus aureus subsp. aureus N315", "conditions": "read-out: IC50_Mean"}, "[7]": {"target": "fMet-Leu-Phe receptor (Homo sapiens, UniProt P21462)", "sequence (P21462 whole entry)": "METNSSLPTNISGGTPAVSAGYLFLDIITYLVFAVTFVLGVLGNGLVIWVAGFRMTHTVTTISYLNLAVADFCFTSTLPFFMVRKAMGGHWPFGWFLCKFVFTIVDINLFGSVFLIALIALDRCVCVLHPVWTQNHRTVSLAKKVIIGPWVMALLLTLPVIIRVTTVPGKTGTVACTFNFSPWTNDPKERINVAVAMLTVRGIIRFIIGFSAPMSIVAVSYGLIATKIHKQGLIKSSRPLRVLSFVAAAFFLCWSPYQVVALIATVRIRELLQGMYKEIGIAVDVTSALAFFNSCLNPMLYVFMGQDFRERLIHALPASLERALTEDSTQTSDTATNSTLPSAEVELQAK", "experiment": "formyl peptide receptor binders – dose response (AID 519)", "format": "functional"}, "[8]": {"target": "Long-chain-fatty-acid--AMP ligase FadD28 (Mycobacterium tuberculosis, UniProt P9WQ59)", "sequence (P9WQ59 whole entry)": "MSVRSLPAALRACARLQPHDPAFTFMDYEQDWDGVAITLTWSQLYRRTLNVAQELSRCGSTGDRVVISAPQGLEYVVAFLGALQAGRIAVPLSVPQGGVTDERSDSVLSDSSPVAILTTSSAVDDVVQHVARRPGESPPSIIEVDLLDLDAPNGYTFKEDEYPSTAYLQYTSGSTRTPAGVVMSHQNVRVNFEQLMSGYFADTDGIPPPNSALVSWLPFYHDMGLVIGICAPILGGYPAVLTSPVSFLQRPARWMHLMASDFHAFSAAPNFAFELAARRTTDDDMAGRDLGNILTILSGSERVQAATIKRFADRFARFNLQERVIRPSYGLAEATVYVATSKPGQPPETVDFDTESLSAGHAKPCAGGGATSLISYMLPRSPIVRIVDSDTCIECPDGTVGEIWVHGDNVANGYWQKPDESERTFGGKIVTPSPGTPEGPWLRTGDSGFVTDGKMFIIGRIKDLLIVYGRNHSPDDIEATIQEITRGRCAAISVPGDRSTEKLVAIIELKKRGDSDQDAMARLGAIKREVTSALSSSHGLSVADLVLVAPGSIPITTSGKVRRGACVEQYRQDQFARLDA", "experiment": "Fluorescence polarization aasay to screen for inhibitors that compete for the binding of FadD28 to a bisubstrate Measured in Biochemical System Using Plate Reader - 2147-01_Inhibitor_Dose_CherryPick_Activity.", "format": "functional, Mycobacterium tuberculosis H37Rv"}, "[9]": {"experiment": "cells", "format": "functional, cell-based"}, "[10]": {"target": "T4, Trace amine-associated receptor 1 (Homo sapiens, UniProt Q96RJ0)", "T4 sequence (Q96RJ0 whole entry)": "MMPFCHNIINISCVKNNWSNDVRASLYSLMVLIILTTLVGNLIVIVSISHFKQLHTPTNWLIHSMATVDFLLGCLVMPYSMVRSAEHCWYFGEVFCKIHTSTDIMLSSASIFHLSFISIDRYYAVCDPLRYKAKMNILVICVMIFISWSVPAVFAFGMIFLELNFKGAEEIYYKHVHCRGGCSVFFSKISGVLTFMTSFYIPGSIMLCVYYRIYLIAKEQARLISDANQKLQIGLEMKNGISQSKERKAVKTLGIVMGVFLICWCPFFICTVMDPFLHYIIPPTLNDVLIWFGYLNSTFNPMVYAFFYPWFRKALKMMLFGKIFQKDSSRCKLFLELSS", "experiment": "Fluorescence-based cell-based high throughput dose response assay to identify agonists of the human trace amine associated receptor 1 (TAAR1).", "format": "functional"}, "[11]": {"target": "T4, Trace amine-associated receptor 1", "experiment": "Counterscreen for agonists of the human trace amine associated receptor 1 (hTAAR1): Fluorescence-based cell-based high throughput dose response assay to identify hTAAR1 agonist that also desensitize TAAR1 receptor response.", "format": "functional"}, "[12]": {"experiment": "cells", "format": "functional, cell-based", "remark": "listed apart in the source"}, "[13]": {"target": "Luciferin 4-monooxygenase (Photinus pyralis, UniProt P08659)", "sequence (P08659 whole entry)": "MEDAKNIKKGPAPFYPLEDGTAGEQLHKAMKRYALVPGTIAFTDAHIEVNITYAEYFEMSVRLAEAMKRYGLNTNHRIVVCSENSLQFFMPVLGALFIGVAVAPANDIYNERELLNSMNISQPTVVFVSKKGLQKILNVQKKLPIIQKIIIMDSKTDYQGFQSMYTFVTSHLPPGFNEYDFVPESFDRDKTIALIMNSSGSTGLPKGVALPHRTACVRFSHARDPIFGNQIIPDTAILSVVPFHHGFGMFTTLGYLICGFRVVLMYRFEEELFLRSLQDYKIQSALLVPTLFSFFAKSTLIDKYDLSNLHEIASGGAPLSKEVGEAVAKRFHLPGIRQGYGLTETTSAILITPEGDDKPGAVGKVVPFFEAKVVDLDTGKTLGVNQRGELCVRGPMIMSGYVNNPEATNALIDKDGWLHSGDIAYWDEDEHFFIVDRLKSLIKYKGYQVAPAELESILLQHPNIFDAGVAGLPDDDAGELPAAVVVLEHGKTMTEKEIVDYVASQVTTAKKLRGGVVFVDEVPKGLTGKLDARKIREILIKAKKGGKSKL", "experiment": "inhibition of purified Photinus pyralis luciferase – biochemical, luminescence, dose response (AID 1891)"}, "[14]": {"experiment": "Luminescence Cell-Based Dose Confirmation HTS to Identify Inhibitors of Platelet Dense Granule Release. [Related pubchem assays: 1663 (Primary HTS), 1678 (Summary of Project)]", "format": "functional"}, "[15]": {"target": "Beta-galactosidase (Escherichia coli, UniProt Q8VNN2)", "sequence (Q8VNN2 whole entry)": "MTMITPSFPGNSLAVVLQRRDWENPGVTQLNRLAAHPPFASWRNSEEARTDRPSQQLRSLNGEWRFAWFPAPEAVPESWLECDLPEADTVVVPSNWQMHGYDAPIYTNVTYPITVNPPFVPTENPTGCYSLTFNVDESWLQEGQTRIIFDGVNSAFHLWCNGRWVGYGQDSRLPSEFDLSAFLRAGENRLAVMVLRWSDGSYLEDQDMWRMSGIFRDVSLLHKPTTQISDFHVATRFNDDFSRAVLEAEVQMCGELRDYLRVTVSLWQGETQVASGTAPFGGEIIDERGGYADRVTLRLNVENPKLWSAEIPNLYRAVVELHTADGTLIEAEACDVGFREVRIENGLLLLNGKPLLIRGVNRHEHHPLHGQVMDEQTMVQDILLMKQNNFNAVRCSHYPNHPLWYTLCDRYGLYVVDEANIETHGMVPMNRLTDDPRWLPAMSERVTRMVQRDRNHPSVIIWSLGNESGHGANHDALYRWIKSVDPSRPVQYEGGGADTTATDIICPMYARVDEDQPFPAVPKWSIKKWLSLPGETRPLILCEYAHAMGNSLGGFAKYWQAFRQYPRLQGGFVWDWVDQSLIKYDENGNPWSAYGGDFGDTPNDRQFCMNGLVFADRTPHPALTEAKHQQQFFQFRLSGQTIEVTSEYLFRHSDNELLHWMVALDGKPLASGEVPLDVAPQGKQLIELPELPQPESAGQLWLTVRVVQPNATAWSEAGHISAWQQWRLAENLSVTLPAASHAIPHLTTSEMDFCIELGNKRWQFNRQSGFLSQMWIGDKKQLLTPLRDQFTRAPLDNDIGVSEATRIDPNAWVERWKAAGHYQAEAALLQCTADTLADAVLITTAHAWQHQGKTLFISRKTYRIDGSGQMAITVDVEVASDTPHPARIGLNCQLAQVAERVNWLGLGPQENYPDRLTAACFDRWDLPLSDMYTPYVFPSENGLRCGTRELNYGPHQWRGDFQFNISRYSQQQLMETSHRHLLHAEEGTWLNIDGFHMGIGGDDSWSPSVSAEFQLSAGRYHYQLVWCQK", "experiment": "Dose response counterscreen for EBI2 assay utilizing the enzyme, b-galactosidase.", "format": "functional"}, "[16]": {"target": "Fructose-bisphosphate aldolase (Mycobacterium tuberculosis, UniProt P9WQA3)", "sequence (P9WQA3 whole entry)": "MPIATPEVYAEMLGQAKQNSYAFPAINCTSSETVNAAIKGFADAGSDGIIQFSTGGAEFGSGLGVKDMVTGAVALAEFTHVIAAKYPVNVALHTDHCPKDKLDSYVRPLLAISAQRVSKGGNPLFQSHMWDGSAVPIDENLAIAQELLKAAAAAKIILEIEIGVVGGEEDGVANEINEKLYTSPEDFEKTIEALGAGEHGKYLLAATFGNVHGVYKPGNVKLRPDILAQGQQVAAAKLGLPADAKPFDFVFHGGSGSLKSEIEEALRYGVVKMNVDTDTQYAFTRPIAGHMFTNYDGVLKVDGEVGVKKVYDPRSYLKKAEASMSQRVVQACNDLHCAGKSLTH", "experiment": "Fluorescence-based biochemical high throughput dose response assay for inhibitors of the fructose-bisphosphate aldolase (FBA) of M. tuberculosis.", "format": "functional"}}, "note": "Activity calls are given as the source filed them.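 Wherever IC50 Mean is given: confirmatory dose-response retesting of NadD inhibitor hits first found in an ultra-high-throughput screen.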"}
{"smiles": "CCOC(=O)c1c(-c2ccc(-c3ccccc3)cc2)csc1NC(=O)C1C2CCC(O2)C1C(=O)O", "note": "(stereo unspecified)", "values": [{"measurement": "IC50", "setting": "[1]", "result": "6.09 µM (active)"}, {"measurement": "IC50", "setting": "[2]", "result": "38.5 µM (not active)"}, {"measurement": "IC50", "setting": "[3]", "result": "> 59.6 µM (not active)"}, {"measurement": "IC50", "setting": "[4]", "result": "29.6 µM (active)"}, {"measurement": "IC50", "setting": "[5]", "result": "5.15 µM (active)"}, {"measurement": "IC50", "setting": "[6]", "result": "15.3 µM (active)"}, {"measurement": "Ki", "setting": "[7]", "result": "> 66.7 µM (inactive)"}]}
{"smiles": "CCc1ccc(NC(=S)N(Cc2ccc(Cl)cc2)Cc2ccc(C(=O)O)cc2)cc1", "values": [{"measurement": "AC50", "setting": "[8]", "result": "> 100 µM (inactive)"}]}
{"smiles": "CCOC(=O)C(NC(=O)CC)(N1CCc2ccccc2C1)C(F)(F)F", "note": "(stereo unspecified)", "values": [{"measurement": "IC50", "setting": "[9]", "result": "> 29.9 µM (inactive)"}, {"measurement": "EC50", "setting": "[10]", "result": "125 nM (active)"}, {"measurement": "IC50", "setting": "[11]", "result": "1.03 µM (active)"}, {"measurement": "EC50", "setting": "[12]", "result": "> 29.9 µM (inactive)"}]}
{"smiles": "CNC(=O)/C(C#N)=C/c1ccc(-c2nc3ccccc3s2)o1", "values": [{"measurement": "EC50", "setting": "[13]", "result": "> 112 µM (not active)"}, {"measurement": "EC50", "setting": "[14]", "result": "> 112 µM (not active)"}, {"measurement": "IC50", "setting": "[15]", "result": "> 80 µM (inactive)"}]}
{"smiles": "CCCn1c(-c2cc(OC)c(OC)c(OC)c2)nc2c1c(=O)[nH]c(=O)n2Cc1ccccc1", "values": [{"measurement": "IC50", "setting": "[16]", "result": "1.32 µM (active)"}]}
